Here are results for one molecule from article PMC9455738, “Low-Dose Near-Infrared Light-Activated Mitochondria-Targeting Photosensitizers for PDT Cancer Therapy” (International Journal of Molecular Sciences, 2022).

Holding throughout (type): cell-based, human
The test system of one assay is A2780 cells. Briefly: Resazurin cytotoxicity, dark and after white light projector irradiation (>600 nm), A2780. As for the experimental part:
(§1) Therefore, the cytotoxicity of the Pc-based compounds was evaluated against different cell lines both under irradiation and in the dark. Compounds LC31, MLC31, and DMLC31Pt, as well as cisplatin were screened against several cancer cell lines representative of human cervical cancer (HeLa), cisplatin-sensitive human ovarian carcinoma (A2780), cisplatin-resistant ovarian endometrioid adenocarcinoma (A2780/CP70), and non-cancerous fibroblast (MRC-5) cell lines. […]
(§2) Human cervical carc in oma cells (HeLa) were cultured in DMEM (Gibco) supplemented with 5% fe t a l calf serum (FCS, Gibco), 100 U/mL penicillin, 100 µg/mL st re pto myc i n . The normal human fe t a l lung fibroblast cell line (MRC‐5) wa s grown in MEM medium (Gibco) supplemented with 10% FCS (Gibco), penicillin (100 U/mL), and st re pto myc i n (100 µg/mL). The human ovarian carc in oma A2780 cell line and a cisplatin‐resistant subline CP70 were cultured in RPMI‐1640 medium (Gibco) supplemented with 10% FCS (Gibco), penicillin (100 U/mL), and st re pto myc in (100 μg/mL). The cells were cultured at 37 °C an d in 5% CO2 humidified at mo sph e re .
(§3) Cy to toxicit y Determination
(§4) The c y totoxic ity of the PSs in the dark and upon light irradiation was evaluated in several cell lines, using a re sa zu r in‐based fluorometric cell viability assay (Sigma‐Aldrich, Darmstadt, Germany). Stock solutions of the Pc agents (5 mM) were prepared in DMF and sto re d in the dark. The sto c k solutions were further diluted with co mp l ete medium to the desired working concentrations. Fo r an exp eriment , 100 µL aliquots of cells in growth medium were seeded in 96‐well plates (density of 2.5 × 10^3 cells/well fo r HeLa, 4 × 10^3 cells/well fo r A2780, and 1.5 × 10^3 cells/well fo r MRC‐5 cells) and incubated at 37 °C, 5% CO2 and 100% humidity. […] At the end of the incubation period, fluorescence of the highly re d fluorescent re so r u f in product (λex = 540 nm, λem = 590 nm) was quantified using a SpectraMax M5 microplate re a d e r (Molecular Device, San Jose, USA). […]
(Alamar Blue is a resazurin reagent that responds to reducing activity.)

A further assay has as its system MRC-5 cells. Briefly: Resazurin cytotoxicity, dark and after white light projector irradiation (>600 nm), MRC-5. As for the experimental part: as §1, §2, §3, §4
Another assay concerns A2780/CP70 cells. Briefly: Resazurin cytotoxicity, dark and after white light projector irradiation (>600 nm), A2780/CP70. How it is done: as §1, §2, §3, §4
The test system of another assay is HeLa cells. Briefly: Resazurin cytotoxicity, dark and after white light projector irradiation (>600 nm), HeLa. How it is done: as §1, §2, §3, §4

Where two headings read alike, the source gives them in different places.

In the case of `N.N.[Cl][Pt][Cl]` [cisplatin, Cis-[PtCl2(NH3)2]], in the assay on A2780 cells (6.96 J cm^−2), the “p.i. A2780” value is recorded as 0.7. The IC50 in the assay on A2780 cells (4 h incubation in the dark, further 72 h incubation, read-out: IC50 A2780 Dark) is 2.8 µM; in the assay on A2780 cells (4 h incubation, white light projector cutoff below 600 nm, 5.8 mW cm^−2, 6.96 J cm^−2, read-out: IC50 A2780 Light), 4 µM; with MRC-5 cells (MRC-5, 4 h incubation, white light projector cutoff below 600 nm, 5.8 mW cm^−2, 6.96 J cm^−2, read-out: IC50 MRC-5 Light), 4.5 µM; in the assay on MRC-5 cells (MRC-5 non-cancerous fibroblast, 4 h incubation in the dark, read-out: IC50 MRC-5 Dark), 5.4 µM; in the assay on A2780/CP70 cells (A2780/CP70 (cisplatin resistant), 4 h incubation in the dark, read-out: IC50 A2780/CP70 Dark) it was 102 µM; with A2780/CP70 cells (A2780/CP70, 4 h incubation, white light projector cutoff below 600 nm, 5.8 mW cm^−2, 6.96 J cm^−2, read-out: IC50 A2780/CP70 Light), 129 µM. The IC50 with HeLa cells (4 h incubation in the dark, further 72 h incubation, read-out: IC50 HeLa Dark) stood at 1.3 µM; in the assay on HeLa cells (4 h incubation, white light projector cutoff below 600 nm, 5.8 mW cm^−2, 6.96 J cm^−2, further 72 h, read-out: IC50 HeLa Light), 1.7 µM. In addition, in the assay on MRC-5 cells (MRC-5, 6.96 J cm^−2), the “p.i. MRC-5” value is recorded as 1.2. Also, the “p.i. A2780/CP70” value in the assay on A2780/CP70 cells (A2780/CP70, 6.96 J cm^−2) turned out to be 0.79. Further, in the assay on HeLa cells (6.96 J cm^−2), the “p.i. HeLa (phototoxicity index, IC50 dark / IC50 light)” value came to 0.76.
